One series relates to wild-type MEFs. Put plainly: cell survival assay (CellTiter Glo), wild-type MEFs. To be noted: WT MEFs, 72 h exposure. It counts as cell-based, mouse. The method, then:
Wild-type or Neil1-KO MEFs were plated in a 96-well opaque walled dish (2000 cells/well) and incubated for 18 h to allow for attachment. Inhibitor (80 µL) diluted in DMEM was added to the cells at various concentrations ranging from 0–20 µM, and incubated for an additional 72 h. Cell viability was measured using the CellTiter Glo reagent (Promega, Madison, WI) and was prepared as per the manufacturer's instructions, with 50 µL of the reconstituted reagent added to each well. Cells were incubated for 10 min on an orbital shaker to induce cell lysis. Survival was measured by luminescence on a microplate reader (TECAN) and normalized to no-treatment control.
To experimentally address this question, mouse embryo fibroblasts from wild-type and Neil1 knockout mice were treated with increasing concentrations of P2, P6, P7, and P8. Cell survival was measured after a 72 h exposure. For all four compounds, the 37% survival was greater in the Neil1 knockout cells relative to the wild-type. The D37 ratios for WT: Neil1 were as follows: P2: 6∶10 µM; P6: 5∶8 µM; P7: 12∶15 µM; and P8: 7∶11 µM, respectively. […] In addition to modulating BER, there are potentially many other candidate enzymes that may be compromised by the introduction of these compounds, including but not limited to kinases, DNA and RNA polymerases, other DNA repair complexes or helicases. However, given that the concentrations of these compounds are several orders of magnitude higher than what would be considered as a pharmacologically-relevant dose, detailed mechanistic analyses of the current set of compounds is highly premature. Such studies and the development of appropriate cell culture and animal models will need to be generated concomitantly with the evolution of higher affinity, greater specificity molecules.
For orientation: In ATP-based viability assays light output follows the ATP content of the culture.

The target of series [1] is T1, T4 pyrimidine dimer DNA glycosylase (T4-pdg) (Enterobacteria phage T4, UniProt P04418).
T1 construct: made in house
T1 sequence (P04418 whole entry): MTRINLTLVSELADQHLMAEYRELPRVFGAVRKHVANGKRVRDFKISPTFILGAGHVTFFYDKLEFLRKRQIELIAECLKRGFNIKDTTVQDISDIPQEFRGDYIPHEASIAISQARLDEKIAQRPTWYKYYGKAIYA
The series can be described thus: UV-irradiated plasmid nicking assay. To be noted: 40 µM inhibitor, 15 min; read-out: inhibition of T4-pdg activity (reduction in nicks per plasmid). The series is classed as biochemical. The method, then: T4-pdg activity was assayed by a plasmid nicking assay with minor modifications of a previously described method, [27]. Supercoiled pBR322 plasmid was irradiated with 254 nm ultraviolet (UV) light (100 µW/cm^2) for 98 sec to produce approximately 10 thymine dimers per plasmid molecule. Irradiated plasmid (10 nM) was then incubated in the presence or absence of inhibitors with 130 pM active T4-pdg, as assessed by […] trapping. Reactions were started by addition of DNA, incubated for 15 min at 37°C in reaction buffer (10 mM Tris pH 8.0, 1 mM EDTA, 125 mM NaCl, 100 µg/ml BSA), and stopped by the addition of SDS to a final concentration of 1%. Plasmid DNAs (form I, II and III corresponding to supercoiled, nicked circular and linear, respectively) were resolved on a 0.9% agarose gel and visualized with 0.5 µg/ml ethidium bromide. Gel images were captured on a ChemiImager 5500 (Alpha Innotech, Santa Clara, CA) gel documentation system and densitometry was performed using Image J software. Percent remaining form I DNA was calculated by applying a factor of 1.42 to the form I band intensity and then dividing form I by the sum of form I, II and III. The number of nicks per molecule were estimated based on a Poisson distribution, in which nicks per molecule = -ln (mass fraction of form I DNA remaining), and inhibition of activity was measured as the percentage reduction in the number of nicks per plasmid molecule compared to reactions without inhibitor.
In humans, several glycosylases, including OGG1, NTH1, NEIL2, and NEIL3 may participate in the removal of a wide variety of oxidized bases. […] To address this question, assays were designed to measure inhibition of OGG1 and NTH1, as well as the Escherichia coli glycosylase-AP lyase, FPG. In order to compare the relative efficiencies of inhibition between NEIL1 and these other glycosylase/AP lyases, it was necessary to identify common DNA substrates and pair-wise analyze inhibition data. To compare inhibition of NEIL1 versus NTH1, oligodeoxynucleotides were synthesized that contained a site-specific thymine glycol (TG) adduct, while comparative inhibition data for OGG1 and FPG were collected using an oligodeoxynucleotide containing a site-specific 8-oxo-Gua. In control reactions (no inhibitor added), each enzyme generated the expected incised products, confirming the validity of the assay. […] Additionally, experiments were designed to test whether compounds P2, P6, P7, and P8 could inhibit a pyrimidine dimer-specific glycosylase/AP lyase, T4 pyrimidine dimer DNA glycosylase (T4-pdg) that also has an associated AP lyase activity, using an UV-irradiated plasmid nicking assay. […]

In another series the target is T2, NEIL1 (Homo sapiens, UniProt Q96FI4).
T2 construct: made in house
T2 sequence (Q96FI4 whole entry): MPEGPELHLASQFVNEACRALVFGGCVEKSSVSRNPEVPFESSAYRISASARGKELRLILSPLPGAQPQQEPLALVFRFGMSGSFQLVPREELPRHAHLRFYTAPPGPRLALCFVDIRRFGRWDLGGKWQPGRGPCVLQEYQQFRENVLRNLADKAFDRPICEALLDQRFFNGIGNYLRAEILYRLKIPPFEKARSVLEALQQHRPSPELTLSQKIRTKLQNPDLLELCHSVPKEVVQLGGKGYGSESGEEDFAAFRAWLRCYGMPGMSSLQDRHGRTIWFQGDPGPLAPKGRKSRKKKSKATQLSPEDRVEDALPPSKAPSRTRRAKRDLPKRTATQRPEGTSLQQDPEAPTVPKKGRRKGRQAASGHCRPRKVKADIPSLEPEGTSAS
Put plainly: gel-based incision assay of oligodeoxynucleotides containing site-specific base lesions. The series is classed as biochemical. Conditions: polyacrylamide gel, reaction quenched at 20 min. The procedure:
The 384-well fluorogenic assay was carried out in a 20 µL reaction mixture in 20 mM Tris-HCl pH 8.0, 100 mM KCl, and 0.1% BSA, with 5 nM active enzyme and 50 nM substrate. Possible inhibitors were incubated with the enzyme for at least 5 min at room temperature in a black, low-volume 384-well plate before addition of an equal volume of substrate to start the reaction. The plates were spun for 30 s at 1000 rcf to remove bubbles. The reactions were incubated at 37°C and fluorescence data collected on an Infinite M200 (Tecan, Mannedorf, Switzerland) equipped with standard optics (excitation filter 525 nm, and emission filter 598 nm). For the gel-based assay, reactions were initiated as described for the fluorogenic assay, but quenched with 20 µL 95% formamide at 20 min. The products were separated by electrophoresis through a 15% polyacrylamide gel containing 8 M urea and visualized by a Typhoon scanner (GE Life Sciences, Piscataway, NJ). The fraction of cleaved product was measured using ImageQuant software and analyzed using GraphPad Prism 6. […]

The subject of series [2] is NEIL1, NTH1, OGG1 and FPG. Put plainly: glycosylase/AP lyase cleavage assays with common substrates (Tg, 8-oxo-Gua) across glycosylases. The series is classed as biochemical, human; Escherichia coli (FPG). To be noted: all enzymes except for NTH1. The method, then:
The 384-well fluorogenic assay was carried out in a 20 µL reaction mixture in 20 mM Tris-HCl pH 8.0, 100 mM KCl, and 0.1% BSA, with 5 nM active enzyme and 50 nM substrate. Possible inhibitors were incubated with the enzyme for at least 5 min at room temperature in a black, low-volume 384-well plate before addition of an equal volume of substrate to start the reaction. The plates were spun for 30 s at 1000 rcf to remove bubbles. The reactions were incubated at 37°C and fluorescence data collected on an Infinite M200 (Tecan, Mannedorf, Switzerland) equipped with standard optics (excitation filter 525 nm, and emission filter 598 nm). For the gel-based assay, reactions were initiated as described for the fluorogenic assay, but quenched with 20 µL 95% formamide at 20 min. The products were separated by electrophoresis through a 15% polyacrylamide gel containing 8 M urea and visualized by a Typhoon scanner (GE Life Sciences, Piscataway, NJ). The fraction of cleaved product was measured using ImageQuant software and analyzed using GraphPad Prism 6.
In humans, several glycosylases, including OGG1, NTH1, NEIL2, and NEIL3 may participate in the removal of a wide variety of oxidized bases. […] To address this question, assays were designed to measure inhibition of OGG1 and NTH1, as well as the Escherichia coli glycosylase-AP lyase, FPG. […]

Bounds are passed on as bounds.

For the compound `Cc1cc(/C=C/C#N)cc(C)c1Nc1nc(Nc2ccc3scnc3c2)c2nc[nH]c2n1` [Purine P2], the “D37 (37% survival)” value in the series with wild-type MEFs is listed as 6 µM. For the same compound, the inhibition (usually how much of the control response was suppressed) at 40 µM in series [1] is less than 1%. In addition, the IC50 (as a rule, the concentration that inhibits the measured activity by half) at NEIL1 was determined as 28 µM.
Take `Cc1nc2ccc(Nc3nc(Nc4c(C)cc(/C=C/C#N)cc4C)nc4[nH]cnc34)cc2s1` [Purine P6]: the “D37 (37% survival)” value in the series with wild-type MEFs was 5 µM. In addition, the inhibition at 40 µM in series [1] stood at 32%. Also, half-maximal inhibition against NEIL1 (IC50) was put at 9.2 µM.
Turning to `Cc1cc(/C=C/C#N)cc(C)c1Nc1nc(Nc2ccc3c(c2)CCC3)c2nc[nH]c2n1` [Purine P7], the “D37 (37% survival)” value with wild-type MEFs was 12 µM. For the same compound, the inhibition at 40 µM in series [1] is 13%. In addition, at NEIL1, the IC50 amounted to 11.7 µM.
In the case of `Cc1cc(/C=C/C#N)cc(C)c1Nc1nc(Nc2ccc3c(c2)OCO3)c2nc[nH]c2n1` [Purine P8], in the series with wild-type MEFs, the “D37 (37% survival)” value stood at 7 µM. Also, the inhibition at 40 µM in series [1] was 14%. This compound displayed an IC50 on NEIL1 of 15.2 µM. Besides, the “relative inhibition among the compounds” value in series [2] is “poorest inhibition”.
